# Columns and labels:
# [1] = system: cell line H1299 with high folate receptor α expression; experiment: Confocal cell imaging of tracer uptake, cell line with high folate receptor α expression; format: cell-based; conditions: 100 nM tracer, incubated 1 h
# Procedure: (§1) 4. In order to verify the effect of the present disclosure, the following verification experiment was conducted: • (1) Use of a pemetrexed near-infrared fluorescent molecule in the aspect of differentiating a tumor with high folate receptor α expression from inflammation, that is, specific recognition of the pemetrexed near-infrared fluorescent molecule on a cell line with high folate receptor α expression: a cell line H1299 with high folate receptor α expression, a cell line A549 with low folate receptor α expression and a cell line RAW264.7 with high folate receptor β expression were selected. The cells were cultured in a Roswell Park Memorial Institute (RPPMI) culture medium containing 10% fetal bovine serum (FBS) and 1% […] in moist air containing 5% CO2 and 95% air at 37°C. The cells were incubated for 1 h in a confocal vessel by utilizing a 100 nM pemetrexed near-infrared fluorescent tracer. The cells after incubation were washed with PBS, stained with DPAI, fixed with paraformaldehyde and then photographed.
# [2] = system: H1299 tumor-bearing mice with high folate receptor α expression; experiment: In vivo near-infrared imaging of tumor-bearing mice, high folate receptor α expression; conditions: tail vein injection, dose of 10 nm, after 2 h
# Procedure: (§2) (2) The pemetrexed near-infrared fluorescent molecule was used for specifically recognizing non-small lung cancer tissues with high folate receptor α expression: the pemetrexed near-infrared fluorescent tracer was administrated to H1299 and A549 tumor-bearing mice via tail vein injection at a dose of 10 nm. After 2 h, imaging effects were observed through an animal imaging instrument and tissue biological distribution of mice was analyzed.
# [3] = system: non-small cell lung cancer slice with high folate receptor α expression; experiment: Fluorescence of tumor slices, H1299 tumor plus peritonitis mouse model; format: in vivo; conditions: H1299 tumor-bearing mouse with peritonitis, FIG. 6
# Excerpt: (§3) The establishment of the inflammation model was verified by utilizing immunohistochemistry slices. […] By utilizing different specificities to different folate receptor subtypes, the tumors are effectively differentiated from the inflammatory tissues.
# [4] = system: inflammatory tissue slice with high folate receptor β expression; experiment: Fluorescence of inflammatory tissue slices, H1299 tumor plus peritonitis mouse model; format: in vivo; conditions: H1299 tumor-bearing mouse with peritonitis, FIG. 7
# Excerpt: as §3
# [5] = system: A549 tumor-bearing mice with low folate receptor α expression; experiment: In vivo near-infrared imaging of tumor-bearing mice, low folate receptor α expression; conditions: tail vein injection, dose of 10 nm, after 2 h
# Procedure: as §2
# [6] = system: cell line RAW264.7 with high folate receptor β expression; experiment: Confocal cell imaging of tracer uptake, cell line with high folate receptor β expression; format: cell-based; conditions: RAW264.7, 100 nM tracer, incubated 1 h
# Procedure: as §1
# [7] = system: cell line A549 with low folate receptor α expression; experiment: Confocal cell imaging of tracer uptake, cell line with low folate receptor α expression; format: cell-based; conditions: folate receptor α negative A549 cell, 100 nM tracer, incubated 1 h
# Procedure: as §1
structure (smiles),measurement,setting,value
CC1(C)C(=CC=C2CCCC(C=CC3=[N+](CCCCS(=O)(=O)[O-])c4ccc(S(=O)(=O)O)cc4C3(C)C)=C2Oc2ccc(C[C@H](NC(=O)c3ccc(CCc4c[nH]c5[nH]c(N)nc(=O)c45)cc3)C(=O)O)cc2)N(CCCCS(=O)(=O)O)c2ccc(S(=O)(=O)O)cc21,tracer fluorescence in the cell (internalization),[1],seen in the entire cytoplasm
same,specific recognition of tumor (imaging effect),[2],capable of specifically recognizing
same,tumor background-to-signal ratio,[2],good
same,fluorescence intensity of tissue slice,[3],relatively high intensity
same,fluorescence of tissue slice,[4],almost has no fluorescence
same,targeting effect (imaging),[5],not detected
same,fluorescence in the cell,[6],not detected
same,tracer fluorescence in the cell (internalization),[7],not observed

# From patent EP4592291A1, “USE OF PEMETREXED NEAR-INFRARED FLUORESCENT MOLECULE TARGETING ALPHA-TYPE FOLATE RECEPTOR AS FLUORESCENT TRACER” (Nanjing Nuoyuan Medical Devices Co., Ltd, priority 2022, dated 2024)
